Measured values: patent US20260209211A1, “CYCLIN K DEGRADER AND USE THEREOF” (ADLAI NORTYE BIOPHARMA CO., LTD., priority 2022, published 2026)
Read-outs that look alike come from different tables or passages of the source.

Assays:
[1] = test system: NCI-N87 (Human Gastric Cancer Cell); assay: Bioactivity detection of NCI-N87 cell growth inhibition (CellTiter-Glo); format: cell-based; settings: NCI-N87 cells, 72 hours, highest concentration 10 μM, read-out: N87 CTG IC50
Protocol: This detection method is used to evaluate the biological activity of the compounds described in this disclosure at the cellular level.
(§1) NCI-N87 cells (purchased from the Chinese Academy of Sciences) were harvested, resuspended in complete medium and adjusted to a cell density of 0.1×10^6 cells per ml. The cell suspension was added to a 96-well plate at a volume of 100 μL per well and cultured overnight in a 37° C., 5% CO2 incubator. Prepare the test compound and add it to the cell plate so that the highest concentration of the compound is 10 μM. Set 8 concentration points according to 3-fold dilution. At the same time, 100% inhibition control wells were set, that is, wells with no cells but only an equal volume of complete culture medium; and 0% inhibition control wells, that is, wells with cells added with 0.1% DMSO. The cell plate was cultured at 37° C. and 5% CO2 for 72 hours. Remove the cell culture plate and add 25 μl CellTiter-Glo Luminescent Cell Viability Reagent (promega cat #G7573) to each well. Incubate in the dark for 10 minutes and then transfer 100 μL to a white plate and use Molecular Devices SpectraMax i3 to detect chemiluminescence. The inhibition rate was calculated using the following formula for data processing: compound inhibition rate=(0% inhibition control well signal−compound treatment well signal)/(0% inhibition control well signal−100% inhibition control well signal)*10000. The calculated data were fitted with four parameters using GraphPad Prism software and the corresponding IC50 was calculated.

[2] = test system: HGC27 (Human Gastric Cancer Cell); assay: Bioactivity assay for HGC27 cell growth inhibition (CellTiter-Glo); format: cell-based; settings: read-out: HGC27 CTG IC50
Protocol: This detection method is used to evaluate the biological activity of the compounds of the present disclosure at the cellular level.
as §1, with “HGC27” for “NCI-N87”, “0.2×10^6” for “0.1×10^6”, “24” for “72”, “CellTiter-Glo®” for “CellTiter-Glo”, “signal)*100%.” for “signal)*10000.”

[3] = HGC-27, HGC27 cells, 24 hours, CellTiter-Glo, highest concentration 10 μM

SMILES	IC50 [1] [nM]	IC50 [2, 3] [nM]	IC50 ([2]; HGC-27, 24 h) [nM]
FC(F)(F)c1cnc(NCc2ccc3c(c2)[nH]c2cccnc23)nc1OC1COC1 [Compound 2]	26	139	
Cn1c2cc(CNc3ncc(C(F)(F)F)c(OC4COC4)n3)ccc2c2ncccc21 [Compound 3]		342	
CC[C@@H](Nc1nc(NCc2ccc3c(c2)[nH]c2cccnc23)ncc1C(F)(F)F)C(N)=O [Compound 4]		238	
C[C@@H](O)[C@@H](CO)Nc1nc(NCc2ccc3c(c2)[nH]c2cccnc23)ncc1C(F)(F)F [Compound 5]		30	
Cc1ccnc2c1[nH]c1cc(CNc3ncc(C(F)(F)F)c(OC4COC4)n3)ccc12 [Compound 6]		145	
OCc1ccnc2c1[nH]c1cc(CNc3ncc(C(F)(F)F)c(OC4COC4)n3)ccc12 [Compound 7]		43	
Cc1ccc2[nH]c3cc(CNc4ncc(C(F)(F)F)c(OC5COC5)n4)ccc3c2n1 [Compound 8]		308	
FC(F)(F)c1cnc(NCc2ccc3c(c2)oc2cccnc23)nc1OC1COC1 [Compound 9]		292	
FC(F)(F)c1cnc(NCc2ccc3c(n2)[nH]c2cccnc23)nc1OC1COC1 [Compound 10]		225	
C[C@@H](O)[C@@H](C)Oc1nc(NCc2ccc3c(c2)[nH]c2cccnc23)ncc1C(F)(F)F [Compound 11]		62	
C[C@@H](O)[C@@H](CO)Nc1nc(NCc2ccc3c(c2)[nH]c2c(CO)ccnc23)ncc1C(F)(F)F [Compound 13]	13	41	
FC(F)(F)c1cnc(NCc2ccc3c(c2)[nH]c2ncsc23)nc1OC1COC1 [Compound 14]		75	
Cc1cc2c(cc1CNc1ncc(C(F)(F)F)c(OC3COC3)n1)[nH]c1cccnc12 [Compound 16]		520	
NCc1ccnc2c1[nH]c1cc(CNc3ncc(C(F)(F)F)c(OC4COC4)n3)ccc12 [Compound 19]		62	
FC(F)(F)c1cnc(NCc2cc3[nH]c4cccnc4c3s2)nc1OC1COC1 [Compound 20]		454	
CC[C@@H](Nc1nc(NCc2ccc3c(c2)[nH]c2c(CO)ccnc23)ncc1C(F)(F)F)[C@@H](C)O [Compound 23]		13	
N#Cc1cccc2c3ccc(CNc4ncc(C(F)(F)F)c(OC5COC5)n4)cc3nn12 [Compound 24]		80	
OCc1cccc2c3ccc(CNc4ncc(C(F)(F)F)c(OC5COC5)n4)cc3nn12 [Compound 26]		387	
C[C@@H](O)[C@@H](C)Oc1nc(NCc2ccc3c(c2)[nH]c2c(CN)ccnc23)ncc1C(F)(F)F [Compound 27]		21	
NCc1cccc2c3ccc(CNc4ncc(C(F)(F)F)c(OC5COC5)n4)cc3nn12 [Compound 28]		313	
FC(F)(F)c1cnc(NCc2ccc3c(c2)[nH]c2scnc23)nc1OC1COC1 [Compound 29]		374	
CC[C@@H](Nc1nc(NCc2ccc3c(c2)[nH]c2c(CN)ccnc23)ncc1C(F)(F)F)C(N)=O [Compound 33]	10	32	
C[C@@H](O)[C@@H](C)Nc1nc(NCc2ccc3c(c2)[nH]c2c(CN)ccnc23)ncc1C(F)(F)F [Compound 34]	1.7	7	
COc1ccnc2c1[nH]c1cc(CNc3ncc(C(F)(F)F)c(OC4COC4)n3)ccc12 [Compound 35]		120	
FC(F)(F)c1cnc(NCc2ccc3c(c2)nn2cccnc32)nc1OC1COC1 [Compound 36]			133
OCc1ccnc2c3ccc(CNc4ncc(C(F)(F)F)c(OC5COC5)n4)cc3nn12 [Compound 39]	9	54	
CC[C@@H](Nc1nc(NCc2ccc3c(c2)nn2c(CO)ccnc32)ncc1C(F)(F)F)C(N)=O [Compound 40]	7	121	

SMILES	IC50 [1] [nM]	IC50 [2, 3] [nM]	IC50 ([2]; HGC-27, 24 h) [nM]
NCc1ccnc2c1[nH]c1cc(CNc3ncc(C(F)(F)F)c(N[C@@H](C(N)=O)C4CC4)n3)ccc12 [Compound 42]	13	20	
FC(F)(F)c1cnc(NCc2ccc3c(c2)[nH]c2ncccc23)nc1OC1COC1 [Compound 45]		89	
C[C@@H](Nc1nc(NCc2ccc3c(c2)[nH]c2c(CO)ccnc23)ncc1C(F)(F)F)C(N)=O [Compound 46]		79	
CC[C@@H](Nc1nc(NCc2ccc3c(c2)[nH]c2c(CNC(C)=O)ccnc23)ncc1C(F)(F)F)C(N)=O [Compound 47]		266	
CC(C)[C@@H](Nc1nc(NCc2ccc3c(c2)[nH]c2c(CN)ccnc23)ncc1C(F)(F)F)C(N)=O [Compound 48]	20	53	
FC(F)(F)c1cnc(NCc2ccc3c(c2)nn2ccncc32)nc1OC1COC1 [Compound 49]			510
CC(C)[C@@H](Nc1nc(NCc2ccc3c(c2)nn2c(CO)ccnc32)ncc1C(F)(F)F)C(N)=O [Compound 50]		257	
FC(F)(F)c1cnc(NCc2ccc3c(c2)nc2cccnn23)nc1OC1COC1 [Compound 51]		145	
NCc1ccnc2c1[nH]c1cc(CNc3ncc(C(F)(F)F)c(N[C@@H](C(N)=O)C4CCCC4)n3)ccc12 [Compound 52]	32	39	
NCc1ccnc2c1[nH]c1cc(CNc3ncc(C(F)(F)F)c(N[C@H](CC4CC4)C(N)=O)n3)ccc12 [Compound 53]	48	29	
CCC[C@@H](Nc1nc(NCc2ccc3c(c2)[nH]c2c(CN)ccnc23)ncc1C(F)(F)F)C(N)=O [Compound 54]	32	32	
CC(C)(C)[C@@H](Nc1nc(NCc2ccc3c(c2)[nH]c2c(CN)ccnc23)ncc1C(F)(F)F)C(N)=O [Compound 55]	19		26
NCc1ccnc2c1[nH]c1cc(CNc3ncc(C(F)(F)F)c(N[C@@H](C(N)=O)C4CCC4)n3)ccc12 [Compound 56]	30	25	
CO[C@@H](C)[C@@H](Nc1nc(NCc2ccc3c(c2)[nH]c2c(CN)ccnc23)ncc1C(F)(F)F)C(N)=O [Compound 57]	11	14	
CC(C)(O)[C@@H](Nc1nc(NCc2ccc3c(c2)[nH]c2c(CN)ccnc23)ncc1C(F)(F)F)C(N)=O [Compound 58]	58	114	
C[C@@H](O)[C@@H](C)Nc1nc(NCc2ccc3c(c2)nn2c(CO)ccnc32)ncc1C(F)(F)F [Compound 60]	1.8	13	
CC[C@@H](Nc1nc(NCc2ccc3c(c2)nn2c(CN)ccnc32)ncc1C(F)(F)F)C(N)=O [Compound 62]	48	70	
C[C@@H](O)[C@@H](C)Nc1nc(NCc2ccc3c(c2)nn2c(CN)ccnc32)ncc1C(F)(F)F [Compound 63]	15	20	
CO[C@@H](C)[C@@H](Nc1nc(NCc2ccc3c(c2)[nH]c2c(C#N)ccnc23)ncc1C(F)(F)F)C(N)=O [Compound 67]	2.5	14	
Cc1ccnc2c1[nH]c1cc(CNc3ncc(C(F)(F)F)c(N[C@H](C)[C@@H](C)O)n3)ccc12 [Compound 68]	1	36	
CC[C@@H](Nc1nc(NCc2ccc3c(c2)[nH]c2c(C)ccnc23)ncc1C(F)(F)F)C(N)=O [Compound 70]	13	112	
CO[C@@H](C)[C@H](C#N)Nc1nc(NCc2ccc3c(c2)[nH]c2c(CO)ccnc23)ncc1C(F)(F)F [Compound 71]	8.6	68	
C[C@@H](O)[C@@H](CO)Nc1nc(NCc2ccc3c(c2)[nH]c2c(C#N)ccnc23)ncc1C(F)(F)F [Compound 73]	3	6	
N#Cc1ccnc2c1[nH]c1cc(CNc3ncc(C(F)(F)F)c(N[C@@H]4CN(C(=O)CO)CC[C@@H]4O)n3)ccc12 [Compound 92]		48	
N#Cc1ccnc2c3ccc(CNc4ncc(C(F)(F)F)c(N[C@@H]5CNCC[C@@H]5O)n4)cc3nn12 [Compound 96]		110	
CC[C@@H](Nc1nc(NCc2ccc3c(c2)[nH]c2c(CO)ccnc23)ncc1C(F)(F)F)C(=O)NC [Compound 99]	117		
CC[C@@H](Nc1nc(NCc2ccc3c(c2)[nH]c2c(CO)ccnc23)ncc1C(F)(F)F)C(=O)N(C)C [Compound 100]	112		
